The source of these data is patent US8815590B2, “Composition and method for differentiation of human embryonic stem cells” (Stem Cells for Safer Medicines Limited, priority 2009, dated 2014).

One test concerns ESCs [SHEF1]. Briefly: Flow cytometry of the DE marker CXCR4. In kind it is cell-based, human. Conditions: 2 μM 1M, 100 ng/ml Activin A, alone or in combination, 5 days. The method, then:
(A) RNA was extracted from ESCs [SHEF1] cultured for 7 days in the presence of 2 μM 1M for the days indicated. RT-PCR analyses were performed using primers selective for the genes indicated. (B) ESCs [SHEF1] were treated with 2 μM 1M alone or in combination with 10 μM SB43125 (S) for the days indicated and RT-PCR performed on the extracted RNA. (C) ESCs [SHEF3] were treated with 1M alone or in combination with 100 ng/ml Activin A (A) for the days indicated and RT-PCR performed. (D). ESCs [SHEF1] were treated with 2 μM 1M, or 100 ng/ml ActivinA (A) alone or in combination with 1M for 5 days. Expression of the endoderm markers FoxA2 and HNF4α was analysed by immunofluorescence. The number of percent positive cells averaged from 3 fields of view +/−SD are indicated. Scale bar represents 50 μm. (E) ESCs [SHEF1] were treated with 2 μM 1M, or 100 ng/ml ActivinA (A) alone or in combination with 1M for 5 days. Expression of the DE marker CXCR4 was alaysed by flow cytometry.
ESCs were trypsinised (0.05% Trypsin-EDTA) for 10 minutes at 37° C. and resuspended in PBS containing 2% (v/v) FBS (FBS/PBS). […] Flow cytometry was performed using a FACSCanto cytometer (Becton Dickenson) and the data were analysed with FACSDiva software. […]
In general terms: A flow cytometer gives signals particle by particle.

Another test relates to Human ESCs [SHEF3]. Briefly: Colony morphology, RT-PCR and Western blot of OCT4/NANOG in treated human ESCs. In kind it is cell-based. The method, then:
Human ESCs [SHEF3] were treated with the indicated concentrations of BIO or compound 1M or left untreated as a control and cultured for 7 days. (A) Images show typical colonies formed following the indicated treatments. The scale bars represent 1 mm. (B) Histogram plots of ESCs analysed by flow cytometry following immunostaining with antibodies against the pluripotency markers Tra-1-60 or SSEA4. (C) RNA was extracted from the cells and RT-PCR analyses performed using primers specific to the pluripotency genes OCT4 and NANOG and to the house-keeping gene β-ACTIN. (D) Western blot analysis was performed on protein extracted from the cells and immunoblotted with antibodies specific to Oct4. Blots were stripped and reprobed with anti-Gapdh antibodies to assess equal loading. (E) Compound 1O also induces differentiation of human ESCs. SHEF3 cells were treated with the indicated concentration of 1O for 7 days. Images show typical colony morphology. (F) Histogram plots of ESCs analysed by flow cytometry following staining with Tra-1-60 and SSEA4 antibodies. Analysis of percent positive cells and mean fluorescent intensity are indicated on the plots. (G) RT PCR analysis for the expression of OCT4 and NANOG. Bands for each of the genes were from the same gel with intervening samples removed. (H) Western blot analysis of OCT4 protein expression. Proteins bands were from the same immunoblot with intervening samples removed.
SHEF1 and SHEF3 human ESCs were obtained from the UKSCB and cultured as outlined in their protocols. Briefly, ESCs were maintained on mitomycin C-inactivated mouse embryonic fibroblast (MEF) feeder layers in KnockOut Dulbecco's modified Eagle's medium (KO DMEM) (Invitrogen) supplemented with 20% (vol/vol) KO serum replacement (KOSR; Invitrogen), 1 mM non-essential amino acids (NEAA; Invitrogen), 1 mM glutamine (Invitrogen), 0.1 mM 2-mercaptoethanol (BioRad), penicillin/streptomycin, and 4 ng/ml recombinant human FGF2 (Peprotech). Cultures were passage using 1 mg/ml collagenase at a ratio of 1:8 to 1:12 every 7 days. Cultures were transferred to a feeder-free, chemically defined culture system on ESC-qualified Matrigel® (BD) coated plates in mTeSR1® (Stem Cell Technologies) media according to Stem Cell Technologies' protocol.
Total RNA was isolated and purified using TRIzol Reagent (Invitrogen), following the manufacturer's instructions. All RNA samples were treated with DNase I (Ambion) before cDNA synthesis to eliminate any contaminating genomic DNA. RNA (1 μg) was reverse transcribed into cDNA using Oligo(dT)15 (Promega) and SuperScript II (Invitrogen). Gene-specific PCR was carried out using primers and annealing temperatures outlined in Table 2.
Cell lysates (20 μg) were prepared, separated by SDS-PAGE and transferred to nitrocellulose as described previously (Welham et al., 1994). Immunoblotting was carried out using primary antibodies at the following dilutions: 1:5,000 anti-Oct4 (Santa Cruz Biotechnology; sc-9081); 1:2000 anti-GAPDH (sc-20357); 1:10,000 anti-phospho (Ser33/37/Thr41) β-catenin (Cell signalling Technology; CST 9561); 1:1000 anti-β-catenin (CST 9562). Anti-rabbit antibodies conjugated to horseradish peroxidise (DAKO) were used at 1:10,000 and blots were developed using ECL Advance (GE Healthcare) or ChemiGlow (Alpha Innotech) according to manufacturer's directions. Images were captured and analysed using the ImageQuant RT ECL system (GE Healthcare). Blots were stripped and reprobed as described previously (Welham et al., 1994).

SMILES strings stand for the structures.

On to `O=C1NC(=O)C2=C1c1cn(c3ccccc13)CCOCCOCCOCCOCCn1cc2c2ccccc21` [1M], for which the “CXCR4 expression by flow cytometry” value in the test with ESCs [SHEF1] was 53.0%. Moreover, in the test with Human ESCs [SHEF3] (7 days treatment), the “OCT4 and NANOG gene expression (RT-PCR)” value is “loss of the pluripotency markers OCT4 and NANOG”; the “Oct4 protein expression (Western blot)” value is recorded as “loss of Oct4 protein expression”. In addition, the “Proliferation and differentiation of human ESCs (colony morphology)” value in the test on Human ESCs [SHEF3] (7 days, on MEFs in KO DMEM or on Matrigel in mTeSR1, 1M at 2 μM) was “dramatic increase in proliferation and differentiation”.
